Series [1] is described as follows: In vivo evaluation of the complex of nanoparticles and PSP: plasma PSP concentration and pharmacokinetic parameters after duodenal administration. The following applies: male, SD, rats, 9.4 mg in terms of PSP per rat, n=6, mean ± S.D. The procedure: SD male rats (7 weeks old, about 200 g) were fasted for 24 hours. Under etherization, laparotomy was performed. By use of an injection needle, which was inserted through the pyrolus, the nanoparticle preparation (0.5 ml) prepared in Example 1 or the control preparation (0.5 ml) was administered duodenumally to the rats (dose: 9.4 mg in terms of PSP per rat; n=6). The cut was closed immediately after administration. Blood was collected from the carotid artery at 0.5, 1, 2, 4, 8, 12, and 24 hours following the administration. In accordance with the method of […] (Journal of Pharmaceutical Science, 79, 334, 1990), the plasma PSP concentration of each rat was measured. The plasma (0.3 ml) that had been centrifugally separated from the collected blood, purified water (0.3 ml), and aqueous 0.1 N NaOH solution (0.9 ml) were mixed. The mixture was filtered through use of an ultrafilter membrane (molecular weight of fractionation=10,000), to thereby remove proteins, etc. The filtrate was used as a sample solution. Separately, standard solutions were prepared through use of aqueous PSP-Na solutions (starting from 9.4 mg/ml in terms of PSP, a series of 2-fold dilutions) (0.3 ml each), a blank plasma from each rat (0.3 ml), and aqueous 0.1 N NaOH solution (0.9 ml) were mixed and ultrafiltered. For each of the sample solutions and standard solutions, absorption was determined through use of a spectrometer at the wavelength of 560 nm. Based on the results obtained from the standard solutions, a calibration curve was obtained, and the plasma PSP concentrations were measured. Based on the obtained time-plasma PSP concentration profile, pharmacokinetic parameters were calculated.

Series [2] relates to ionized calcium concentration in blood. The experiment in a line: In vivo evaluation of nanoparticle-sCT preparations: change of blood ionized calcium concentration after peroral administration. Details: species or system SD male rats. The following applies: rats fasted 24 h, 0.5 ml preparation, single administration. Here is the method: To SD male rats (7 weeks old, about 200 g) fasted for 24 hours were administered perorally the nanoparticle preparation (0.5 ml) prepared in Example 3 or the control preparation (0.5 ml) (n=5). After administration, blood was collected from the tail vein of each rat in an amount of about 60 μl at 40 minutes, 80 minutes, 2, 3, 4, 6, and 8 hours following the administration.
Using a 634 Ca^++/pH analyzer (Ciba-Coning), the concentration of ionized calcium in the collected blood was measured. The difference between the ionized calcium concentration at time 0 and that at each of the aforementioned times was calculated and plotted. From the plots, presence or absence of the effect of absorption enhancement obtained through formation of nanoparticles was determined.
In this connection, sCT is known to have the pharmacological effect of reducing the blood ionized calcium concentration.
By use of the nanoparticle preparation or the control preparation obtained in Example 7, the procedure of Example 4 was repeated to thereby determine the presence or absence of the effect of absorption enhancement obtained by the formation of nanoparticles.
By use of the nanoparticle preparation or the control preparation obtained in Example 9, the procedure of Example 4 was repeated to thereby determine the presence or absence of the effect of absorption enhancement obtained by the formation of nanoparticles. […]

As usually defined, the AUC(0-inf) is total exposure, with the tail of the curve extrapolated. For orientation: Cmax means the highest concentration seen after dosing. By Tmax is commonly meant the time at which the peak concentration occurs. Turning to `O=S1(=O)OC(c2ccc(O)cc2)(c2ccc(O)cc2)c2ccccc21` [Aq. PSP-Na sol. (control prep.), phenolsulfonphthalein], in series [1], the AUC(0-inf) amounted to 9970 ± 2200 ng·h/mL, the Cmax was 2000 ± 290 ng/mL and the time to peak (Tmax) came to 0.92 ± 0.2 h. The MRT last in series [1] (read-out: MRT0-24 h) was 4.57 ± 0.34 h.
For “salmon calcitonin [aqueous sCT solution]”, in series [2], the “effect of reducing the blood ionized calcium concentration” value is on record as “slightly decreased”.

These data come from US6368631B1, “Fine grain carriers and medicinal composition prepared with the use of the same” (Daiichi Pharmaceutical Co., Ltd., priority 1996, dated 2002).
